Experimental data from US20030229145A1, “Pain treatment methods and compositions” (GRUENENTHAL GMBH, priority 2000, published 2003).
Where a name gives a salt, the structure may show the parent alone. Read-outs that look alike come from different tables or passages of the source.

Tests used:
[1] = test system: AMPA response of spinal neurons in the dorsal horn; experiment: Microiontophoresis on anaesthetized rats (evoked potentials of dorsal horn cells after application of excitatory amino acids); format: in vivo; conditions: for ED50: Rattus norvegicus, Neuron, read-out: ED50 of inhibition of the AMPA response; for Inhibition of the AMPA response of spinal neurons (in words): microiontophoretic NMDA, kainate
Experimental: (derivation of evoked ascending potentials of individual cells in the dorsal horn of the spinal cord of anaesthetized rats after microiontophoretic application of excitatory amino acids (EAAs))
Male rats (Sprague Dawley, Janvier) with a body weight of from 280 g to 350 g were used. To induce the anaesthesia, inhalation anaesthetization was carried out with 4.0-5.0% halothane in a mixture of 200 ml/min oxygen (O2) and 400 ml/min dinitrogen monoxide (N2O) in a plexiglas anaesthetization box. During the preparatory phase, the halothane concentration was reduced to 1.0-1.5%. For the rest of the experiment, the inhalation anaesthetization was then replaced by bolus application of 40 mg/kg of chloralose in 3.5% Haemaccel solution (i.v.) and maintained by continuous infusion of 20 mg/kg/2.0 ml/h of chloralose. After the induction anaesthetization (4.0-5.0% halothane, see above), the tracheal tube was fitted through a syringe cylinder (20 ml Omnifix, Luer) shortened to about 20 mm, which was placed over the mouth and nose of the animals, with a 2.5% halothane concentration. The halothane concentration was then reduced to about 1.5%. Exhaled air was extracted through a closed system. For the application of test substances, a PE-20 (1.09*0.38mm) catheter was fitted into the dorsal branch of the left V. jugularis. A PE-50 tube (0.9569 mm*0.58 mm) was inserted into the left arteria carotis as a catheter for continuously monitoring the blood pressure. For the laminectomy, the animals were then placed in the prone position. An incision was made along the midline from the nape of the neck to the pelvic region. A blood-pressure drop frequently observed following this was treated by local application of lidocaine HCl with adrenaline (xylocitin 2% with adrenaline 0.001%, Jenapharm). The superficial tissue layers on both sides of the spinal column were removed in the vicinity of the vertebral bodies from sacral 2 (S2) to thoracic 8 (Th8). The musculature associated with the vertebral bodies was also removed by careful scraping with a scalpel. The actual laminectomy begins at vertebral body L2 (lumbar 2), after removing the processus spinalis from vertebra L3, and extends into the TH8 rostral region as far as where the large dorsal veins branch off laterally and caudally. The bones of the individual vertebral bodies were carefully removed in small stages by means of fine rongeurs. The musculature around TH8/9 and L1/S2 was also removed, so that immobilization clamps could be fitted later. Exposed tissue was protected against drying by applied 0.9% strength NaCI solution or thin PVC strips. […] In addition to the blood pressure, the local blood circulation was visually assessed, a pink skin color of the paws indicating normal microcirculation. […]

AMPA receptor = experiment: Affinity for the AMPA receptor; format: binding
NMRI mice = experiment: Phenylquinone-induced writhing test on mice; format: in vivo; conditions: 10 min; mouse, i.v., phenylquinone i.p. 10 minutes after substance
Experimental: The anti-nociceptive efficacy of the compounds according to the invention was studied on mice with the phenylquinone-induced writhing test, modified after I. C. Hendershot, J. Forsaith, J. Pharmacol. Exp. Ther. 125, 237-240 (1959). Male NMRI mice with a weight of from 25-30 g were used for this purpose. 10 minutes after intravenous administration of a compound according to the invention, groups of 10 animals per substance dose were intraperitoneally given 0.3 ml/mouse of a 0.02% strength aqueous solution of phenylquinone (phenylbenzoquinone, Sigma, Deisenhofen; production of the solution with the addition of 5% ethanol and storage in a water bath at 45° C.). The animals were placed individually in observation cages. The number of pain-induced stretching movements (so-called writhing reactions =straightening of the body with stretching of the hind extremities) were counted by means of a push-button counter 5-20 minutes after the phenylquinone administration. Animals which received physiological saline solution i.v. and phenylquinone […]. were also included as a control.
All the substances were tested in the standard dose of 10 mg/kg. The percentage inhibition (% inhibition) of the writhing reactions by a substance was calculated according to the following formula:
% inhibition=100−[WR of treated animals/ WR of control×100]

Sprague Dawley rats = experiment: Mechanical hyperalgesia after paw incision on rats (paw incision model); format: in vivo
Experimental: In this model, the pain due to a wound in the vicinity of an incision on the plantar side of a hind paw of the rat is studied as a model of postoperative pain (Brennan, T. J., Vandermeulen, E. P., Gebhart, G. F., Pain (1996) 493-501). For this purpose, the retraction latency after point mechanical stimulation with an electronic von Frey filament is determined. After the paw incision, a mechanical hyperalgesia develops and remains stable over several days.
Male Sprague Dawley rats (body weight 200-300 g) are used. […]
By using an electronic von Frey filament (Digital Transducer Indicator Model 1601C, IITC Inc.), the retraction threshold of the paw, expressed in grams, after point mechanical stimulation is determined. For this purpose, the retraction threshold is measured five times per measurement point at an interval of 30 sec, and the individual median is determined, with the aid of which the average of the animal population is calculated. […]
To study the primary hyperalgesia, the retraction threshold on the ipsilateral paw is determined in the immediate vicinity of the incision, and also in the same position on the contralateral paw. […]
The Mann-Whitney U test is used for the significance calculation (p<0.05). For dose-dependent effects, the ED50 value is determined with the aid of a regression analysis.

Row | SMILES | ED50 ([1]; anaesthetized rats, spinal neurons in the dorsal horn) | Inhibition of the AMPA response of spinal neurons (in words) ([1]; anaesthetized rats) | Affinity for the AMPA receptor (in words) (AMPA receptor) | ED50 (NMRI mice) | % MPE, retraction threshold of the ipsilateral paw (Sprague Dawley rats; 464 mg/kg i.p.) | ED50 [1] | % MPE, retraction threshold of the ipsilateral paw (Sprague Dawley rats; 100 mg/kg)
1 | CCCC(CC)C(N)C(=O)[O-].[Na+] (racemic) | 60 mg/kg | selective inhibition of the AMPA response | without having any AMPA affinity | – | – | – | –
2 | CCCCCC(C)C(N)C(=O)O (racemic) [Compound 2, rac-2-amino-3-methyl-octanoic acid hydrochloride as a 1:1 D/L mixture] | – | – | – | 28 mg/kg | – | – | –
3 | CCCC(CC)C(N)C(=O)O.Cl (racemic) [Compound 7, rac-amino-3-ethyl-hexanoic acid hydrochloride as a 1:1 D/L mixture] | – | – | – | – | 30% MPE (464 mg/kg i.p.) | – | –
4 | NCC1(CC(=O)O)CCCCC1 [Gabapentin] | – | dose-dependent and selective inhibition of the AMPA response | no affinity for the AMPA receptor | 38 mg/kg | – | 106 mg/kg | 66% MPE (100 mg/kg)
